Columns and labels:
IL-1β = test: PBMC assay: IL-1β release after LPS stimulation; format: cell-based; conditions: PBMC; human PBMCs, 30 min compound, 100 ng/ml LPS for 6 hrs, MSD; read-out: IL1β AC50
Description: The activity of a compound according to the present invention can be assessed by in vitro methods.
(§1) Peripheral venous blood was collected from healthy individuals and human peripheral blood mononuclear cells (PBMCs) were isolated from blood by Ficoll-Histopaque (Sigma-Aldrich, A0561) density gradient centrifugation. After isolation, PBMCs were stored in liquid nitrogen for later use. Upon thawing, PBMC cell viability was determined in growth medium (RPMI media supplemented with 10% fetal bovine serum, 1% Pen-Strep and 1% L-glutamine). Compounds were spotted in a 1:3 serial dilution in DMSO and diluted to the final concentration in 30 μl medium in 96 well plates (Falcon, 353072). PBMCs were added at a density of 7.5×10^4 cells per well and incubated for 30 min in a 5% CO2 incubator at 37° C. LPS stimulation was performed by addition of 100 ng/ml LPS (final concentration, Invivogen, tlrl-smlps) for 6 hrs followed by collection of cellular supernatant and the analysis of IL-1β (μM) and TNF cytokines levels (μM) via MSD technology according to manufacturers' guidelines (MSD, K151A0H).
(§2) IC50 and AC50 values (for […]) and EC50 and AC50 values (TNF) were obtained on compounds of the invention/examples, and the AC50 values are depicted in the following table: […]

TNF = test: PBMC assay: TNF cytokine level after LPS stimulation; format: cell-based; conditions: PBMC; human PBMCs, 30 min compound, 100 ng/ml LPS for 6 hrs, MSD
Description: as §1, §2

With `CNC(C(F)(F)F)C12CC(NC(=O)Cn3nc(C(C)C)c(OCC(C)C)cc3=O)(C1)C2` (stereo not shown) [Compound 109] the AC50 (IL-1β) was 1350 nM and the AC50 (TNF) was > 20 µM.

With `CC(C)COc1cc(=O)n(CC(=O)Nc2ccc3nncn3n2)nc1OCC(C)C` [Compound 108] the AC50 (IL-1β) was 1330 nM and the AC50 (TNF) was > 20 µM.

In the case of `CC(C)COc1cc(=O)n(CC(=O)Nc2nc3cc(Cl)ccc3o2)nc1C(C)C` [Compound 141, N-(5-chlorobenzo[d]oxazol-2-yl)-2-(4-isobutoxy-3-isopropyl-6-oxopyridazin-1(6H)-yl)acetamide], the AC50 (IL-1β) is reported as 12200 nM and the AC50 (TNF) is reported as > 20 µM.

In the case of `CN(C)c1nn(CC(=O)Nc2ccc3nncn3c2)c(=O)cc1OCC(F)(F)F` [Compound 106], the AC50 (IL-1β) is reported as 1210 nM and the AC50 (TNF) is reported as > 20 µM.

With `CC(C)c1nn(CC(=O)Nc2ccc3nncn3c2)c(=O)cc1Oc1ccccc1` [Compound 25F] the AC50 (IL-1β) was > 15000 nM and the AC50 (TNF) was > 10 µM.

`CC(C)COc1c(C(C)C)nn(CC(=O)Nc2ccc3nncn3c2)c(=O)c1Cl` [Compound 60, N-([1,2,4]triazolo[4,3-a]pyridin-6-yl)-2-(5-chloro-4-isobutoxy-3-isopropyl-6-oxopyridazin-1(6H)-yl)acetamide] was tested, and the AC50 (IL-1β) was 160 nM and the AC50 (TNF) was > 20 µM.

For `CC(C)c1nn(CC(=O)Nc2ccc3nncn3c2)c(=O)cc1OCC1(F)CC1` [Compound 64], the AC50 (IL-1β) was 200 nM and the AC50 (TNF) was > 20 µM.

For `CC(C)COc1cc(=O)n(CC(=O)NC23CC(N)(C2)C3)nc1C(C)C` [Compound 117], the AC50 (IL-1β) was 2040 nM and the AC50 (TNF) was > 20 µM.

With `Cc1nnc(C23CC(NC(=O)Cn4nc(C(C)C)c(OCC(C)C)cc4=O)(C2)C3)o1` [Compound 119, 2-(4-isobutoxy-3-isopropyl-6-oxopyridazin-1(6H)-yl)-N-(3-(5-methyl-1,3,4-oxadiazol-2-yl)bicyclo[1.1.1]pentan-1-yl)acetamide] the AC50 (IL-1β) was 2520 nM and the AC50 (TNF) was > 20 µM.

For `CC(C)COc1cc(=O)n(CC(=O)Nc2nc3ncccc3o2)nc1C(C)C` [Compound 140], the AC50 (IL-1β) was 11800 nM and the AC50 (TNF) was > 20 µM.

For `CC(C)c1nn(CC(=O)Nc2ccc3nncn3c2)c(=O)cc1OC1CCCC1` [Compound 5F], the AC50 (IL-1β) was 470 nM and the AC50 (TNF) was > 10 µM.

For `CC(C)COc1cc(=O)n(CC(=O)Nc2nc3cccnc3o2)nc1C(C)C` [Compound 144], the AC50 (IL-1β) was > 20000 nM and the AC50 (TNF) was > 20 µM.

With `CN(C)c1nn(CC(=O)Nc2ccc3nncn3n2)c(=O)cc1OCC1CC1` [Compound 76] the AC50 (IL-1β) was 370 nM and the AC50 (TNF) was > 20 µM.

`CC(C)c1nn(CC(=O)Nc2ccc3nncn3n2)c(=O)c(Cl)c1OCC1CC1` [Compound 44, N-([1,2,4]triazolo[4,3-b]pyridazin-6-yl)-2-(5-chloro-4-(cyclopropylmethoxy)-3-isopropyl-6-oxopyridazin-1(6H)-yl)acetamide] showed an AC50 (IL-1β) of 70 nM and an AC50 (TNF) of 3.53 µM.

In the case of `COc1nn(CC(=O)Nc2ccc3nncn3n2)c(=O)cc1OCC(F)(F)F` [Compound 154], the AC50 (IL-1β) is reported as > 20000 nM and the AC50 (TNF) is reported as > 20 µM.

`CC(C)c1nn(CC(=O)Nc2ccc3nncn3c2)c(=O)cc1OCC1(C)COC1` [Compound 15F] was tested, and the AC50 (IL-1β) was 2300 nM and the AC50 (TNF) was > 10 µM.

`CC(C)COc1cc(=O)n(CC(=O)NC23CC(C(N)C(F)(F)F)(C2)C3)nc1C(C)C` (stereo not shown) [Compound 107] was tested, and the AC50 (IL-1β) was 1310 nM and the AC50 (TNF) was > 20 µM.

In the case of `CC(C)COc1cc(=O)n(CC(=O)Nc2nc3ccc(F)cc3n2C)nc1C(C)C` [Compound 136], the AC50 (IL-1β) is reported as > 10000 nM and the AC50 (TNF) is reported as > 10 µM.

In the case of `COc1c(C(C)C)nn(CC(=O)Nc2ccc3nncn3c2)c(=O)c1C1CC1` [Compound 28E], the AC50 (IL-1β) is reported as > 15000 nM and the AC50 (TNF) is reported as > 10 µM.

`CC(C)COc1cc(=O)n(CC(=O)Nc2cc3ncccn3n2)nc1C(C)C` [Compound 103] was tested, and the AC50 (IL-1β) was 1100 nM and the AC50 (TNF) was > 20 µM.

With `CC(C)COc1cc(=O)n(CC(=O)Nc2nc3cc(Cl)ccc3n2C)nc1C(C)C` [Compound 150] the AC50 (IL-1β) was > 20000 nM and the AC50 (TNF) was > 20 µM.

With `CC(C)COc1cc(=O)n(CC(=O)NC23CC(C)(C2)C3)nc1C(C)C` [Compound 92] the AC50 (IL-1β) was 710 nM and the AC50 (TNF) was > 20 µM.

`CC(C)COc1cc(=O)n(CC(=O)Nc2ccc3nncn3c2)nc1C(C)C` [Compound 10F] was tested, and the AC50 (IL-1β) was 60 nM and the AC50 (TNF) was > 10 µM.

Reference: US20240109905A1, “4-ALKOXY-6-OXO-PYRIDAZINE DERIVATIVES MODULATING NLRP3” (JANSSEN PHARMACEUTICA NV, priority 2021, published 2024)
